Experimental data from patent publication EP0363041A1 (priority 1988, dated 1990).
Several values for one entry are separate records, joined by “and”; a condition that tells them apart may be missing. Equal entries are not always repeated. Where two headings read alike, the source gives them in different places.

How the values were obtained:
Assay type in all cases: binding, mouse
[1] = test system: MO-3
[2] = test system: MO-4
[3] = test system: MO-2
[4] = test system: MO-6
[5] = test system: "antibody carrier" (monoclonal antibody of MO-3 strain); test: Latex agglutination assay: competition with "normorphine carrier" for "antibody carrier"
[6] = test system: MO-5

Row | Compound | reactivity ratio with morphine, MO-3 [1] | reactivity ratio with morphine, MO-4 [2] | reactivity ratio with morphine, MO-2 [3] | reactivity ratio with morphine, MO-6 [4] | time at which polystyrene latex particles were observed to be agglutinated [5] | reactivity ratio with morphine, MO-5 [6] | time at which polystyrene latex particles were observed to be agglutinated ([5]; 0.3 ppm in urine of healthy men, normorphine carrier of Example 5, 0 ppm gives 16 seconds) [s] | time at which polystyrene latex particles were observed to be agglutinated ([5]; 0.3 ppm in urine of healthy men, normorphine carrier of Example 6, 0 ppm gives 13 seconds) [s]
1 | COC(=O)[C@H]1[C@@H](OC(=O)c2ccccc2)C[C@@H]2CC[C@H]1N2C [Cocaine, cocaine] | < 0.001 | < 0.001 | < 1.0 | < 0.1 | 16 s and 13 s | < 0.001 | – | –
2 | COc1ccc2c3c1O[C@H]1[C@@H](O)C=C[C@H]4[C@@H](C2)N(C)CC[C@@]341 [Codeine, codeine] | < 0.1 | < 0.1 | < 1.0 | < 0.1 | – | < 0.1 | – | –
3 | CCOc1ccc2c3c1O[C@H]1[C@@H](O)C=C[C@H]4[C@@H](C2)N(C)CC[C@@]341 [Ethylmorphine, ethylmorphine] | < 0.01 | < 0.01 | < 1.0 | < 0.1 | – | < 0.01 | 16 | 13
4 | CN1CC[C@]23c4c5ccc(O[C@@H]6O[C@H](C(=O)O)[C@@H](O)[C@H](O)[C@H]6O)c4O[C@H]2[C@@H](O)C=C[C@H]3[C@H]1C5 [M - 3 - G, morphine-3-glucronide] | 0.1 | 0.2 | 2.0 | 0.3 | – | 0.5 | – | –
5 | CN1CC[C@]23c4c5ccc(O)c4O[C@H]2[C@@H](O[C@@H]2O[C@H](C(=O)O)[C@@H](O)[C@H](O)[C@H]2O)C=C[C@H]3[C@H]1C5 [M - 6 - G, morphine-6-glucronide] | 0.6 | 0.9 | 440 | 1.0 | – | 0.9 | – | –
6 | CCC(=O)C(CC(C)N(C)C)(c1ccccc1)c1ccccc1 (centres unmarked) [Methadone, methadone] | < 0.001 | < 0.001 | < 1.0 | < 0.1 | – | < 0.001 | – | –
7 | CN1CC[C@]23c4c5ccc(O)c4O[C@H]2[C@@H](O)C=C[C@H]3[C@H]1C5 [Morphine, morphine] | 100 | 100 | 100 | 100 | – | 100 | – | –
